Results reported in patent US10668048B2, “Compounds for inhibiting bacterial growth via phosphatidylglycerol binding” (Wichita State University, priority 2016, dated 2020).
≈ marks a conversion by molar mass, not a printed value.

Experiments:
MRSA [1] = experiment: MIC in cation-adjusted Muller Hinton culture; type: cell-based, Methicillin-resistant S. aureus; details: no growth after 24 hours
Experimental: (§1) MICs were determined in cation-adjusted Muller Hinton culture. Standard CLSI protocol for serial dilutions of liptin concentrations were used to determine the MIC, starting at 0.01 OD. Two different experimental cultures were used and each data point measured in triplicate.

[2] = system: Gram-positive and Gram-negative bacteria; experiment: Growth curves in BHI culture with liptins 1h-k; type: cell-based; details: one inoculation
Experimental: Growth curves in BHI culture were generated (not shown) from liquid shake-flask cultures using absorbance measurements at 600 nm at different concentrations of liptins 1h-k. Uninoculated control flasks were used as blanks. Absorbance values of 0.1 OD unit was considered reasonable threshold for positive growth. The use of the nutrient-rich BHI culture allowed us to measure the effects of the small structural differences in liptins 1h-k on bacterial growth rates over long periods of time. […] Liptin exposure appears to stop bacterial growth, as evidenced by long lag phases, which increase with liptin concentration, and growth rates and maximum cell densities are decreased with liptin treatment.

Acinetobacter baumannii [3] = experiment: Live-Dead stain (BacLight SYTO 9 / propidium iodide); type: cell-based; details: 5 μM, 90 minutes
Experimental: (§2) Molecular Probes BacLight© kits containing the SYTO 9 green-fluorescent dye and propidium iodide red-fluorescent dye were used to detect live or dead bacteria after ninety minute exposure of bacteria to liptins 1h or 1k. Bacteria in Muller Hinton culture were grown to an OD=0.3, were inoculated with liptins 1h and 1k and after ninety minutes stained with a mixture of the above dyes and affixed to a slide to be examined under a light microscope (40×) to determine the number of live and dead cells (green colored cells considered alive and red-colored cells considered dead). Data was calculated based upon an average of 5 different plate counts from each slide, and is based on a percent of total bacteria counted (live and dead). Control sample contains no liptin.

Staphylococcus aureus [4] = experiment: as above; type: cell-based; details: 5 μM, 90 minutes
Experimental: as §2

Klebsiella pneumoniae [5] = experiment: as above; type: cell-based; details: 5 μM, 90 minutes
Experimental: as §2

Mycobacterium smegmatis [6] = experiment: as above; type: cell-based; details: 5 μM, 90 minutes
Experimental: as §2

Escherichia coli [7] = experiment: as above; type: cell-based; details: 10 μM, 90 minutes
Experimental: as §2

Acinetobacter baumannii [8] = experiment: MIC in cation-adjusted Muller Hinton culture; type: cell-based; details: no growth after 24 hours
Experimental: as §1

Staphylococcus aureus [9] = experiment: MIC in cation-adjusted Muller Hinton culture; type: cell-based; details: no growth after 24 hours
Experimental: as §1

Pseudomonas aeruginosa = experiment: MIC in cation-adjusted Muller Hinton culture; type: cell-based; details: no growth after 24 hours
Experimental: as §1

Klebsiella pneumoniae [10] = experiment: MIC in cation-adjusted Muller Hinton culture; type: cell-based; details: no growth after 24 hours
Experimental: as §1

Mycobacterium smegmatis [11] = experiment: MIC in cation-adjusted Muller Hinton culture; type: cell-based; details: no growth after 24 hours
Experimental: as §1

Escherichia coli [12] = experiment: MIC in cation-adjusted Muller Hinton culture; type: cell-based; details: no growth after 24 hours
Experimental: as §1

[13] = system: human HeLa (vaginal carcinoma) cells; experiment: LDH release cytotoxicity assay; type: cell-based; details: up to about 15 μM
Experimental: (§3) Toxicity Studies of human HeLa (vaginal carcinoma) and A549 (lung carcinoma epithelial) cells with Liptins 1h and 1k.
(§4) Eukaryote cell toxicity was determined using a Pierce LDH assay kit including the Chemical Compound-Mediated Cytotoxicity assay. This kit measures cell death by measuring the amount of lactate dehydrogenase released from cells. Lactate dehydrogenase (LDH) is a cytosolic enzyme present in many different types of cells. When the plasma membrane is damaged, LDH is released into cell culture media. The released LDH can be quantified by a coupled enzymatic reaction. First, LDH catalyzes the conversion of lactate to pyruvate via reduction of NAD+ to NADH. Second, diaphorase uses NADH to reduce a tetrazolium salt (INT) to a red formazan product. Therefore, the level of formazan formation is directly proportional to the amount of released LDH in the medium.

[14] = system: A549 (lung carcinoma epithelial) cells; experiment: LDH release cytotoxicity assay; type: cell-based; details: near 15 μM
Experimental: as §3, §4

Acinetobacter baumannii [15] = experiment: MBC in cation-adjusted Muller Hinton culture; type: cell-based
Experimental: as §1, with “Minimum bactericidal concentration (MBC)” for “MICs”, “MBC,” for “MIC,”

Staphylococcus aureus [16] = experiment: MBC in cation-adjusted Muller Hinton culture; type: cell-based
Experimental: as §1, with “Minimum bactericidal concentration (MBC)” for “MICs”, “MBC,” for “MIC,”

Klebsiella pneumoniae [17] = experiment: MBC in cation-adjusted Muller Hinton culture; type: cell-based
Experimental: as §1, with “Minimum bactericidal concentration (MBC)” for “MICs”, “MBC,” for “MIC,”

Mycobacterium smegmatis [18] = experiment: MBC in cation-adjusted Muller Hinton culture; type: cell-based
Experimental: as §1, with “Minimum bactericidal concentration (MBC)” for “MICs”, “MBC,” for “MIC,”

Escherichia coli [19] = experiment: MBC in cation-adjusted Muller Hinton culture; type: cell-based
Experimental: as §1, with “Minimum bactericidal concentration (MBC)” for “MICs”, “MBC,” for “MIC,”

MRSA [20] = experiment: MBC in cation-adjusted Muller Hinton culture; type: cell-based, Methicillin-resistant S. aureus
Experimental: as §1, with “Minimum bactericidal concentration (MBC)” for “MICs”, “MBC,” for “MIC,”

MRSA [21] = experiment: Live-Dead stain (BacLight SYTO 9 / propidium iodide); type: cell-based, Methicillin-resistant S. aureus; details: 90 minutes
Experimental: as §2

E. coli = experiment: BacLight Bacterial Membrane Potential kit, plasma membrane depolarization; type: cell-based; details: one half the liptins' MICs; concentration dependent
Experimental: (§5) The Molecular Probes BacLight® Bacterial Membrane Potential kit was used to detect changes in the polarization of the bacterial plasma membrane upon inoculation of bacteria with varying concentrations of liptins 1h or 1k. […] CCCP (carbonyl cyanide 3-chlorophenylhydrazone) is a proton ionophore that destroys plasma membrane potential and as such is a positive control. […] With plasma membrane depolarization the bacterial cell loses its ability to synthesize ATP and proteins. Additionally loss of membrane potential stops the ability for cell replication due to an inability for proper placement of divisome proteins in the plasma membrane. […] Thus, it is possible that the liptin's mechanism of action is a result of their deleterious effect on the functioning of electron transport proteins found in the plasma membrane.

S. aureus = experiment: as above; type: cell-based; details: one half the liptins' MICs; concentration dependent
Experimental: as §5

[22] = system: Gram-negative and Gram-positive bacteria; experiment: MIC/MBC in Muller Hinton culture, summary over the bacteria tested; type: cell-based
Experimental: as §1
as §1, with “Minimum bactericidal concentration (MBC)” for “MICs”, “MBC,” for “MIC,”

## CCCCCCNC(=O)Cc1ccc2c(c1)CNCCCCNCc1cc(CC(=O)NCCCCCC)ccc1OCCCCO2 [Liptin 1k]
MRSA [1]
  MIC: 2.5 µM (≈ 1.59 µg/mL)
[2]
  antibacterial activity from growth curves: most potent
Acinetobacter baumannii [3]
  Dead: 97%
  Live: 3%
Staphylococcus aureus [4]
  Dead: 42%
  Live: 58%
Klebsiella pneumoniae [5]
  Dead: 100%
  Live: 0%
Mycobacterium smegmatis [6]
  Dead: 100%
  Live: 0%
Escherichia coli [7]
  Dead: 65%
  Live: 35%
Acinetobacter baumannii [8]
  MIC: 2 µM (≈ 1.27 µg/mL)
Staphylococcus aureus [9]
  MIC: 2 µM (≈ 1.27 µg/mL)
Pseudomonas aeruginosa
  MIC: 8 µM (≈ 5.1 µg/mL)
Klebsiella pneumoniae [10]
  MIC: 2.5 µM (≈ 1.59 µg/mL)
Mycobacterium smegmatis [11]
  MIC: 2 µM (≈ 1.27 µg/mL)
Escherichia coli [12]
  MIC: 1.5 µM (≈ 0.955 µg/mL)
[13]
  cell toxicity (LDH release): no cell toxicity
[14]
  cytotoxicity (LDH release): around 8%
Acinetobacter baumannii [15]
  MBC: 7.5 µM (≈ 4.78 µg/mL)
Staphylococcus aureus [16]
  MBC: 9.5 µM (≈ 6.05 µg/mL)
Klebsiella pneumoniae [17]
  MBC: 9.5 µM (≈ 6.05 µg/mL)
Mycobacterium smegmatis [18]
  MBC: 9.5 µM (≈ 6.05 µg/mL)
Escherichia coli [19]
  MBC: 7.5 µM (≈ 4.78 µg/mL)
MRSA [20]
  MBC: 11.5 µM (≈ 7.32 µg/mL)
MRSA [21]; 5 μM
  Dead: 70%
  Live: 30%
MRSA [21]; 10 μM
  Dead: 100%
  Live: 0%
E. coli
  plasma membrane depolarization (red/green fluorescence ratio): large membrane depolarization
S. aureus
  plasma membrane depolarization (red/green fluorescence ratio): large membrane depolarization
[22]
  MICs determined for the 6 bacteria: 1.5 to 2.5 µM
